Measurements as given in article PMC2720136 (Bioorganic & medicinal chemistry, 2009).
Each block holds one compound with its values, some of them ahead of it.

What was measured:
pig kidney FBPase = target: T1, pig kidney FBPase (Sus scrofa, UniProt P00636); test: Coupled-enzyme FBPase activity assay; type: biochemical
T1 sequence (P00636 1-338): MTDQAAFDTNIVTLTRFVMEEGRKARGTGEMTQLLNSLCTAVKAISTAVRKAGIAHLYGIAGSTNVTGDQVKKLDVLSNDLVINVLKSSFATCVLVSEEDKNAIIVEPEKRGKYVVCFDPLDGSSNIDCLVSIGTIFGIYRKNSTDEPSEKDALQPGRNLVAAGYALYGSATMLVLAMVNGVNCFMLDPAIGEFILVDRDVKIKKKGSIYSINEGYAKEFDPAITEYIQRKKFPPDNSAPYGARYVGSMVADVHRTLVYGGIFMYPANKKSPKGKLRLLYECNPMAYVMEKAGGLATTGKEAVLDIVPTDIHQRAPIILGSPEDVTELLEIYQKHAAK

human liver FBPase = test: Inhibition of human liver FBPase by MB05032; type: biochemical; conditions: MB05032 EC50 (human liver FBPase) vs 4c IC50 (pig kidney FBPase)

Compound: Oc1ccc(-c2csc(Nc3ccccc3O)n2)cc1 [Compound 5b, 2-(4-(4-Hydroxyphenyl)thiazol-2-ylamino)phenol]
fold improved inhibition of 5b over 5a (pig kidney FBPase; ratio of IC50, 5a vs 5b): ~18 fold

Compound: Oc1ccc(Nc2nc(-c3ccc(O)cc3)cs2)cc1 [Compound 3b, 4-(4-(4-Hydroxyphenyl)thiazol-2-ylamino)phenol]
fold improved inhibitory activity of 3b over 3a (pig kidney FBPase; ratio of IC50, 3a vs 3b): 3 fold

Compound: CC(C)Cc1sc(N)nc1-c1ccc(P(=O)(O)O)o1 [MB05032]
fold better than 4c (human liver FBPase): approximately 370 fold

Now from value to compound:

inhibition with nitro at R5 (in words) (pig kidney FBPase; pig kidney FBPase): eliminated
Compound: O=[N+]([O-])c1ccc(-c2csc(Nc3ccc(O)cc3)n2)cc1 [Compound 3d, 4-(4-(4-Nitrophenyl)thiazol-2-ylamino)phenol]

inhibition with nitro at R5 (in words) (pig kidney FBPase; pig kidney FBPase): eliminates inhibition
Compound: O=[N+]([O-])c1ccc(-c2csc(Nc3ccccc3)n2)cc1 [Compound 8e, 4-(4-Nitrophenyl)-N-phenylthiazol-2-amine]

inhibitory activity against the enzyme at 300 μM (pig kidney FBPase; pig kidney FBPase, 300 μM inhibitor): no significant inhibitory activity
Compound: O=[N+]([O-])c1cccc(Nc2nc(-c3ccccc3)cs2)c1 [Compound 7a, N-(3-Nitrophenyl)-4-phenylthiazol-2-amine]
